Source: patent publication US11246868B2, “Treatment of hippo pathway mutant tumors and methods of identifying subjects as candidates for treatment” (ICAHN SCHOOL OF MEDICINE AT MOUNT SINAI, priority 2016, dated 2022)
Entries after “also recorded” stand apart in the source; their conditions may differ.

Experiments:
[1] = tested on: liver tumor growth induced by YAP overexpression or NF2 inactivation; conditions: mice, tumors induced by YAP overexpression or NF2 inactivation; cited from earlier work
[2] = tested on: MCF10A cells stably expressing HRAS-V12; assay: Anchorage-independent growth assay, HRAS-V12-transformed MCF10A; type: cell-based, human; conditions: MCF10A stably expressing HRAS-V12, 3 weeks
Protocol: (§1) Cells were fed every 4 days for 3 weeks by adding 0.2 mL of growth medium containing either 0.1% DMSO as a control or compounds in 0.1% DMSO at the concentrations indicated.

[3] = tested on: MCF10A cells stably expressing YAP-WT or YAP-S127A; assay: Anchorage-independent growth assay, YAP-transformed MCF10A; type: cell-based, human; conditions: 3 weeks
Protocol: as §1

[4] = tested on: angiomotin proteins (AMOT, AMOTL2); assay: Western blot of angiomotin protein levels; type: cell-based, human; conditions: 10 μM; for angiomotin protein levels (AMOT in 293T, AMOTL2 in H2373): 293T and H2373 cells
Protocol: (§2) Cells were harvested in EBC lysis buffer (50 mM Tris-HCl at pH 7.5, 150 mM NaCl, 5 mM EDTA, 0.5% NP-40), supplemented with Complete Mini Protease and Phosphatase Inhibitor Cocktails (Roche, Indianapolis, Ind., USA). Cells were lysed and 30-80 μg protein subjected to SDS-PAGE followed by transfer onto an Immobilon-FL PVDF membrane (Millipore, Billerica, Mass., USA) and incubation with the indicated antibodies. Detection was carried out with an Odyssey Infrared Imaging System (LI-COR Biosciences, Lincoln, Nebr., USA) with IR dye-tagged secondary antibodies (LI-COR Biosciences). The following antibodies were utilized: mouse anti-YAP, goat anti-NF2, mouse anti-AMOT, goat anti-AMOTL1, goat anti-AMOTL2 (Santa Cruz, Dallas, Tex., USA), mouse anti-FlagM2 (Sigma, Saint Louis, Mo., USA), rabbit anti-LATS1, rabbit anti-LATS2, rabbit anti-p-YAP (Cell Signaling, Danvers, Mass., USA), TNKS1/2 (Santa Cruz, Dallas, Tex., USA), mouse anti-TEAD4, mouse anti-RAS (Thermo Scientific, Waltham, Mass., USA), mouse anti-α-Tubulin, mouse anti-β-actin (Sigma, Saint Louis, Mo., USA).

[5] = tested on: AMOT, AMOTL1, AMOTL2 mRNA; assay: qRT-PCR of angiomotin mRNA levels; type: cell-based, human; conditions: 293T and H2373 cells, 10 μM, 24 hours
Protocol: (§3) Total RNA was extracted from cells using the RNeasy Mini kit (Qiagen, Hilden, Germany) following the manufacturer's instructions. 1 μg of total RNA was used for cDNA synthesis using Superscript II (Invitrogen, Carlsbad, Calif., USA) according to the manufacturer's instructions.
(§4) Quantitative RT-PCR was performed using the ViiA™ 7 Real-Time PCR System (Life Technologies, Carlsbad, Calif., USA) using the FastStart SYBR Green Master mix (Roche, Indianapolis, Ind., USA). Primers were as follows: […]
(§5) PCR was performed in 384 well plates in 10 μl total volumes under the following conditions: 95° C. for 15 min, followed by 40 cycles of 94° C. for 15 sec, 61° C. for 30 sec, and 72° C. for 30 sec. Specificity was verified by a dissociation curve. Results were analyzed with ViiA7 RUO software (Life Technologies, Carlsbad, Calif., USA). Gene expression levels were normalized to GAPDH expression.

[6] = tested on: TEAD transcriptional activity; assay: TEAD luciferase reporter assay; type: cell-based, human; conditions: for TEAD reporter activity: 293T and H2373 cells, 24 hours, comparison of TNKS and PARP1/2 inhibitors
Protocol: A set of in-house kinase and commercially available inhibitors was used to screen for effects on the TEAD luciferase reporter. 293 cells expressing the TEAD reporter along with renilla-lucifease (20:1 ratio) were plated at low density (2×10^4 cells) in 24 well plates in triplicate. 24 hours after plating, the cells were treated with 10 μM of each compound or DMSO as control. 24 hours later, dual-luciferase reporter assay was performed according to the manufacturer's protocol (Promega, Madison Wis., USA), using TD-20e Luminometer (Turner Biosystem, Promega, Madison Wis., USA). TEAD reporter activity was normalized to renilla luciferase. The Log 2 values were calculated for each compound using the DMSO sample as control.

[7] = tested on: TEAD target genes (CTGF, CYR61, ANKRD1); assay: Quantitative RT-PCR of TEAD target genes; type: cell-based, human; conditions: for TEAD target gene expression (CTGF, CYR61, ANKRD1 mRNA): 293T and H2373 cells, 10 μM
Protocol: as §3, §4, §5

H2373 cells = assay: Clonogenic proliferation (colony formation) assay, H2373; type: cell-based, human; conditions: for proliferation / colony formation: H2373 cells (NF2 mutant), 10 to 14 days
Protocol: (§6) For clonogenic proliferation assay, cells were plated in triplicate at 1×10^3 cells in 6-well plates. For analysis of the effects of inhibitors on cell proliferation, fresh medium with inhibitor was replaced every 48 hours. After 10 to 14 days of treatment, cultures were fixed and stained with 1% crystal violet (in ethanol) and photographed.

YAP = assay: Immunofluorescence of YAP sub-cellular localization; type: cell-based, human; conditions: 24 hours
Protocol: Cells cultured on glass coverslips were fixed for 10 min with 4% paraformaldehyde in 1×PBS at 37° C. and permeabilized for 3 min with 0.02% Triton-X100, following exposure for 1 hour to a blocking solution (PBS containing 5% BSA). Coverslips were then incubated at room temperature with the following primary antibodies: anti-YAP (Santa Cruz, Dallas, Tex., USA) and anti-Flag M2 (Sigma, Saint Louis, Mo., USA). Corresponding secondary antibodies were Alexa fluor conjugated (Molecular Probes, Eugene, Oreg., USA). 2 μg/ml DAPI was used as a counter stain and was used to label nuclei. Imaging was performed using an Axioplan 2 Imaging System (Zeiss, Oberkochen, Germany).

PTEN = assay: Western blot of PTEN levels; type: cell-based, human; conditions: H2052 and H2373 cells, 10 μM, time course
Protocol: as §2

angiomotin = conditions: reported by Wang et al. 2015; cited from earlier work
[8] = tested on: Hippo pathway mutant tumor cells and Hippo pathway wild-type cells; assay: Cell cycle profile by Propidium Iodide staining; type: cell-based, human; conditions: 10 μM, 72 hours
From the text: Statistical analysis of the cell cycle profile is shown below. Error bars indicate SD of experiments performed in triplicate.

[9] = tested on: YAP overexpressing MCF10A cells; conditions: cited from earlier work
AMOT-YAP protein complex = assay: Co-immunoprecipitation of endogenous AMOT and YAP; type: cell-based, human; conditions: 293T cells, 10 μM, 24 hours
Protocol: Cells were harvested in RIPA lysis buffer (50 mM Tris-Cl; pH 8.0, 5 mM EDTA, 1% Triton X-100, 0.1% sodium deoxycholate, 0.1% SDS, 150 mM NaCl) supplemented with Complete Mini Protease and Phosphatase Inhibitor Cocktails. 800 μg proteins were incubated with 10 μg of antibody overnight at 4° C. Anti-mouse or anti-rabbit IgG (Santa Cruz, Dallas, Tex., USA) was used as a negative control. Immunoprecipitated complexes were captured by 2 h incubation at 4° C. with Dynabeads Protein A/G B (Invitrogen, Carlsbad, Calif., USA), followed by three washes in lysis buffer. Immunoprecipitated complexes were eluted by boiling for 5 min with Laemmli buffer (150 mM Tris-Cl; pH 6.8, 20% glycerol, 4% SDS, 0.002% bromophenol blue, 2% 2-mercaptoethanol) with 10% of the total lysates run on the same gel for comparative immunoblot analysis.

YAP S127 phosphorylation = assay: Western blot of YAP S127 phosphorylation; type: cell-based, human; conditions: H2373 cells, varying XAV939 concentrations, 24 hours
Protocol: as §2

293T cells = assay: Clonogenic proliferation (colony formation) assay, 293T; type: cell-based, human; conditions: 10 to 14 days
Protocol: as §6

verteporfin
liver tumor growth [1]: suppressed | HRAS-V12-induced agar colony formation [2]: completely blocked | YAP-WT- and YAP-S127A-induced anchorage-independent cell growth (soft agar colonies) [3]: completely blocked

O=C(Nc1cccc2cccnc12)c1ccc(N2C(=O)[C@@H]3[C@H](C2=O)[C@@H]2C=C[C@H]3C2)cc1 [IWR1]
angiomotin protein levels (AMOT in 293T, AMOTL2 in H2373) ([4]; 24 hours): strikingly increased | AMOT, AMOTL1, AMOTL2 mRNA levels [5]: did not markedly affect | TEAD reporter activity [6]: able to inhibit | TEAD target gene expression (CTGF, CYR61, ANKRD1 mRNA) ([7]; 24 hours): able to inhibit | proliferation / colony formation (H2373 cells): significantly decreased

CC(C)c1ccc(-c2cc(=O)c3ccccc3o2)cc1 [MN-64]
angiomotin protein levels (AMOT in 293T, AMOTL2 in H2373) ([4]; 24 hours): strikingly increased | AMOT, AMOTL1, AMOTL2 mRNA levels [5]: did not markedly affect | TEAD reporter activity [6]: able to inhibit | TEAD target gene expression (CTGF, CYR61, ANKRD1 mRNA) ([7]; 24 hours): able to inhibit | proliferation / colony formation (H2373 cells): significantly decreased

Oc1nc(-c2ccc(C(F)(F)F)cc2)nc2c1CSCC2 [XAV939]
YAP sub-cellular localization (YAP; H2373 cells, endogenous YAP): induced YAP re-localization to the cytoplasm | YAP-S127A sub-cellular localization (YAP; MCF10A stably expressing YAP-S127A): significant shift of YAPS127A to the cytoplasm | levels of PTEN (PTEN): increased modestly | angiomotin stabilization (angiomotin): stabilized | angiomotin protein levels (AMOT in 293T, AMOTL2 in H2373) ([4]; 24 hours): strikingly increased | AMOTL2 protein levels ([4]; H2052 cells, 24 hrs): increased | AMOTL2 protein levels, time course ([4]; H2373 as compared to resistant H2052 cells, 12 days): stabilized higher, durable levels | AMOTL2 levels ([4]; Hippo mutant MESO25 and 211H cells, 24 hours): Increased | durable stabilization of AMOTL2 ([4]; resistant H2052 cells): failed to durably stabilize | cell cycle profile ([8]; cell lines which were not growth inhibited): no detectable cell cycle alteration | cell cycle profile ([8]; tumor lines whose proliferation was inhibited): increased G1 and reduced S phase fractions | AMOT, AMOTL1, AMOTL2 mRNA levels [5]: did not markedly affect | HRAS-V12-induced agar colony formation [2]: lacked any effect; also recorded: not inhibited | acini formation in matrigel [9]: inhibited | inhibitory effect on TEAD transcriptional activity under AMOTL2 silencing ([6]; H2373 cells, doxycycline-inducible AMOTL2 shRNA, 10 μM XAV939): almost completely rescued | AMOT-YAP protein complex (AMOT-YAP protein complex): enrichment | expression of TEAD target genes (CTGF, CYR61, ANKRD1 mRNA) ([7]; H2052 cells, 24 hours): only modestly affected | expression of TEAD target genes ([7]; MCF10A cells stably overexpressing YAP-S127A): inhibited | expression of TEAD target genes (CTGF, CYR61, ANKRD1 mRNA) ([7]; all cell lines tested with the exception of H2052, 24 hours): markedly decreased | YAP S127 phosphorylation status (YAP S127 phosphorylation): did not show any significant differences | inhibitory effect on colony formation under AMOTL2 silencing (H2373 cells; H2373 cells, doxycycline-inducible AMOTL2 shRNA, 10 μM XAV939, 14 days): almost completely rescued

C[C@]1(c2nc3c(C(N)=O)cccc3[nH]2)CCCN1 [ABT-888]
proliferation / colony formation (293T cells): did not affect | angiomotin protein levels (AMOT in 293T, AMOTL2 in H2373) ([4]; 24 hours): lacked any effect | AMOT, AMOTL1, AMOTL2 mRNA levels [5]: lacked any effect | TEAD reporter activity [6]: did not affect | TEAD target gene expression (CTGF, CYR61, ANKRD1 mRNA) ([7]; 24 hours): did not affect | proliferation / colony formation (H2373 cells): did not affect
